Measured values taken from patent US12415803B2, “Fused imidazopyridines as reversible inhibitors of Brutons Tyrosine Kinase (BTK)” (Merck Patent GmbH, priority 2018, dated 2025).

What was measured:
Btk = Btk (Homo sapiens (Human), UniProt Q06187); assay: Btk PBMC IC50 Cell Assay (anti-IgM-induced CD69 expression on B cells); format: cell-based; details: anti-IgM-induced CD69 expression on CD19 positive cells in human PBMCs;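 also: freshly isolated human PBMCs, IC50 from concentration-response of the share of CD19+ cells expressing CD69 after anti-IgM BCR stimulation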
Sequence of Btk (Q06187 whole entry): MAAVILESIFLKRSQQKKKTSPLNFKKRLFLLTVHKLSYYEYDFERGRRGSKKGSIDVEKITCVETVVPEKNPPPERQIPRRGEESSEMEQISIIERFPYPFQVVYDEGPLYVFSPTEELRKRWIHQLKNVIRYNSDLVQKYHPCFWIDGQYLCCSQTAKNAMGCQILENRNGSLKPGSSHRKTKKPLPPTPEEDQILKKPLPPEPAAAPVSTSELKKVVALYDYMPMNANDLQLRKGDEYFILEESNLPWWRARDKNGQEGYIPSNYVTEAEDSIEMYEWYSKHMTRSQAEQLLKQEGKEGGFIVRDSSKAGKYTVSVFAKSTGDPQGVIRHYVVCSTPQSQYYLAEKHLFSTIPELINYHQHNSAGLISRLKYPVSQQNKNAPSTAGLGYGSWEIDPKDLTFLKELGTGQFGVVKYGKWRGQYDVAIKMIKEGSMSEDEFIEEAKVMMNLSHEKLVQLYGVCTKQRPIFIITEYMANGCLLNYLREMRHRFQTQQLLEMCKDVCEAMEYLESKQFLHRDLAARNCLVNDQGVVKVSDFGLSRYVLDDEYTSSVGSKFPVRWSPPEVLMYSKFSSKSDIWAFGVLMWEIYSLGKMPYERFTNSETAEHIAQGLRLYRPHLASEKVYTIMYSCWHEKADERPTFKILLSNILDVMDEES

full-length human BTK = full-length human BTK (Homo sapiens (Human), UniProt Q06187); assay: BTK IC50 Enzyme Assay (microfluidic off-chip mobility shift kinase assay); format: biochemical; details: Btk Enzymatic IC50 Assay, 90 min at 27 C;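 also: Read-out separates phosphorylated peptide product from substrate by their charge-to-mass difference, with IC50 fitted from log inhibitor concentration against percent enzyme activity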
Sequence of full-length human BTK (Q06187 whole entry): as above

Compound: Cn1cc(-c2nc3c(-c4ccc5c(c4)CCCC[C@H]5NC(=O)c4noc(C(C)(C)C)n4)ccnc3[nH]2)cn1 [Compound 52, 5-tert-Butyl-[1,2,4]oxadiazole-3-carboxylic acid {(R)-2-[2-(1-methyl-1H-pyrazol-4-yl)-3H-imidazo[4,5-b]pyridin-7-yl]-6,7,8,9-tetrahydro-5H-benzocyclohepten-5-yl}-amide]
- IC50 (Btk): 1 to 10 nM
- IC50 (full-length human BTK): < 1 nM

Compound: Cn1cc(-c2nc3c(-c4ccc5c(c4)CCCC5NC(=O)c4nnc(C(C)(C)C)o4)ccnc3[nH]2)cn1 (centres unmarked) [Compound 104, 5-tert-Butyl-[1,3,4]oxadiazole-2-carboxylic acid {6-[2-(1-methyl-1H-pyrazol-4-yl)-3H-imidazo[4,5-b]pyridin-7-yl]-1,2,3,4-tetrahydro-naphthalen-1-yl}-amide]
- IC50 (Btk): 10 to 100 nM
- IC50 (full-length human BTK): 1 to 10 nM

Compound: Cn1cc(-c2nc3c(-c4ccc5c(c4)CCCCC5NC(=O)c4cc(C5(C)CC5)on4)ccnc3[nH]2)cn1 (centres unmarked) [Compound 41, 5-(1-Methyl-cyclopropyl)-isoxazole-3-carboxylic acid {2-[2-(1-methyl-1H-pyrazol-4-yl)-3H-imidazo[4,5-b]pyridin-7-yl]-6,7,8,9-tetrahydro-5H-benzocyclohepten-5-yl}-amide]
- IC50 (Btk): 1 to 10 nM
- IC50 (full-length human BTK): < 1 nM

Compound: Cc1cc(-c2nc3c(-c4ccc5c(c4)CCCCC5NC(=O)c4nc(C5(C)CC5)no4)ccnc3[nH]2)nn1C(C)C (centres unmarked) [Compound 117, 3-(1-Methyl-cyclopropyl)-[1,2,4]oxadiazole-5-carboxylic acid {2-[2-(1-isopropyl-5-methyl-1H-pyrazol-3-yl)-3H-imidazo[4,5-b]pyridin-7-yl]-6,7,8,9-tetrahydro-5H-benzocyclohepten-5-yl}-amide]
- IC50 (Btk): 1 to 10 nM
- IC50 (full-length human BTK): < 1 nM

Compound: Cn1ccc(-c2nc3c(-c4ccc5c(c4)CCCCC5NC(=O)c4nc(C(C)(C)C)no4)ccnc3[nH]2)n1 (centres unmarked) [Compound 109, 3-tert-Butyl-[1,2,4]oxadiazole-5-carboxylic acid {2-[2-(1-methyl-1H-pyrazol-3-yl)-3H-imidazo[4,5-b]pyridin-7-yl]-6,7,8,9-tetrahydro-5H-benzocyclohepten-5-yl}-amide]
- IC50 (Btk): < 1 nM
- IC50 (full-length human BTK): < 1 nM

Compound: Cc1c(-c2nc3c(-c4ccc5c(c4)CCCC5NC(=O)c4nc(C5(C)CC5)no4)ccnc3[nH]2)cnn1C(C)C (centres unmarked) [Compound 146, 3-(1-Methyl-cyclopropyl)-[1,2,4]oxadiazole-5-carboxylic acid {6-[2-(1-isopropyl-5-methyl-1H-pyrazol-4-yl)-3H-imidazo[4,5-b]pyridin-7-yl]-1,2,3,4-tetrahydro-naphthalen-1-yl}-amide]
- IC50 (Btk): 1 to 10 nM
- IC50 (full-length human BTK): 1 to 10 nM

Compound: Cc1c(-c2nc3c(-c4ccc5c(c4)CCCC[C@@H]5NC(=O)c4noc(C(C)(C)C)n4)ccnc3[nH]2)cnn1C(C)C [Compound 22, 5-tert-Butyl-[1,2,4]oxadiazole-3-carboxylic acid {(S)-2-[2-(1-isopropyl-5-methyl-1H-pyrazol-4-yl)-3H-imidazo[4,5-b]pyridin-7-yl]-6,7,8,9-tetrahydro-5H-benzocyclohepten-5-yl}-amide]
- IC50 (Btk): 10 to 100 nM
- IC50 (full-length human BTK): 1 to 10 nM

Compound: Cc1c(-c2nc3c(-c4ccc5c(c4)CCCCC5NC(=O)c4noc(C5(C)CC5)n4)ccnc3[nH]2)cnn1C(C)C (centres unmarked) [Compound 23, 5-(1-Methyl-cyclopropyl)-[1,2,4]oxadiazole-3-carboxylic acid {2-[2-(1-isopropyl-5-methyl-1H-pyrazol-4-yl)-3H-imidazo[4,5-b]pyridin-7-yl]-6,7,8,9-tetrahydro-5H-benzocyclohepten-5-yl}-amide]
- IC50 (Btk): 1 to 10 nM
- IC50 (full-length human BTK): < 1 nM

Compound: Cc1nn(C)c(C)c1-c1nc2c(-c3ccc4c(c3)OCCC[C@@H]4NC(=O)c3noc(C(C)(C)C)n3)ccnc2[nH]1 [Compound 16, 5-tert-Butyl-[1,2,4]oxadiazole-3-carboxylic acid {(S)-8-[2-(1,3,5-trimethyl-1H-pyrazol-4-yl)-3H-imidazo[4,5-b]pyridin-7-yl]-2,3,4,5-tetrahydro-benzo[b]oxepin-5-yl}-amide]
- IC50 (Btk): 1 to 10 nM
- IC50 (full-length human BTK): < 1 nM

Compound: Cc1nn(C(C)C)c(C)c1-c1nc2c(-c3ccc4c(c3)CCCC[C@@H]4NC(=O)c3nc(C4(C)CC4)no3)ccnc2[nH]1 [Compound 36, 3-(1-Methyl-cyclopropyl)-[1,2,4]oxadiazole-5-carboxylic acid {(S)-2-[2-(1-isopropyl-3,5-dimethyl-1H-pyrazol-4-yl)-3H-imidazo[4,5-b]pyridin-7-yl]-6,7,8,9-tetrahydro-5H-benzocyclohepten-5-yl}-amide]
- IC50 (Btk): > 100 nM
- IC50 (full-length human BTK): 1 to 10 nM

Compound: Cn1cc(-c2nc3c(-c4ccc5c(c4)OCCC[C@@H]5NC(=O)c4nc(C(C)(C)C)no4)ccnc3[nH]2)cn1 [Compound 45, 3-tert-Butyl-[1,2,4]oxadiazole-5-carboxylic acid {(S)-8-[2-(1-methyl-1H-pyrazol-4-yl)-3H-imidazo[4,5-b]pyridin-7-yl]-2,3,4,5-tetrahydro-benzo[b]oxepin-5-yl}-amide]
- IC50 (Btk): 1 to 10 nM
- IC50 (full-length human BTK): < 1 nM

Compound: Cc1c(-c2nc3c(-c4ccc5c(c4)CCC[C@@H]5NC(=O)N4CC(OC(C)(C)C)C4)ccnc3[nH]2)cnn1C1CCOCC1 [Compound 159, 3-tert-Butoxy-azetidine-1-carboxylic acid ((S)-6-{2-[5-methyl-1-(tetrahydro-pyran-4-yl)-1H-pyrazol-4-yl]-3H-imidazo[4,5-b]pyridin-7-yl}-1,2,3,4-tetrahydro-naphthalen-1-yl)-amide]
- IC50 (Btk): > 100 nM
- IC50 (full-length human BTK): 1 to 10 nM

Compound: Cc1nn(C)c(C)c1-c1nc2c(-c3ccc4c(c3)CCCC4NC(=O)c3nc(C(C)(C)C)no3)ccnc2[nH]1 (centres unmarked) [Compound 68, 3-tert-Butyl-[1,2,4]oxadiazole-5-carboxylic acid {6-[2-(1,3,5-trimethyl-1H-pyrazol-4-yl)-3H-imidazo[4,5-b]pyridin-7-yl]-1,2,3,4-tetrahydro-naphthalen-1-yl}-amide]
- IC50 (Btk): 10 to 100 nM
- IC50 (full-length human BTK): 1 to 10 nM

Compound: Cc1nn(C)c(C)c1-c1nc2c(-c3ccc4c(c3)CCCCC4NC(=O)c3nc(C(C)(C)C)no3)ccnc2[nH]1 (centres unmarked) [Compound 6, 3-tert-butyl-N-[2-[2-(trimethyl-1H-pyrazol-4-yl)-3H-imidazo[4,5-b]pyridin-7-yl]-6,7,8,9-tetrahydro-5H-benzo[7]annulen-5-yl]-1,2,4-oxadiazole-5-carboxamide]
- IC50 (Btk): 1 to 10 nM
- IC50 (full-length human BTK): < 1 nM

Compound: Cc1c(-c2nc3c(-c4ccc5c(c4)CCC[C@H]5NC(=O)c4noc(C(C)(C)C)n4)ccnc3[nH]2)cnn1C1CCOCC1 [Compound 156, 5-tert-Butyl-[1,2,4]oxadiazole-3-carboxylic acid ((R)-6-{2-[5-methyl-1-(tetrahydro-pyran-4-yl)-1H-pyrazol-4-yl]-3H-imidazo[4,5-b]pyridin-7-yl}-1,2,3,4-tetrahydro-naphthalen-1-yl)-amide]
- IC50 (Btk): 1 to 10 nM
- IC50 (full-length human BTK): < 1 nM

Compound: Cc1nn(C(C)C)cc1-c1nc2c(-c3ccc4c(c3)CCCC[C@H]4NC(=O)c3noc(C(C)(C)C)n3)ccnc2[nH]1 [Compound 61, 5-tert-Butyl-[1,2,4]oxadiazole-3-carboxylic acid {(R)-2-[2-(1-isopropyl-3-methyl-1H-pyrazol-4-yl)-3H-imidazo[4,5-b]pyridin-7-yl]-6,7,8,9-tetrahydro-5H-benzocyclohepten-5-yl}-amide]
- IC50 (Btk): 1 to 10 nM
- IC50 (full-length human BTK): < 1 nM
